US5510261A, “Method of controlling the degradation of glycoprotein oligosaccharides produced by cultured Chinese hamster ovary cells” (The Board of Trustees of the Leland Stanford Juniot …, priority 1995, dated 1996)

System: neuraminidase present in CHO cell supernatant
Test: Inhibition of CHO neuraminidase activity, 4MU-NANA artificial substrate assay
Type: biochemical, Chinese hamster
Procedure: The artificial substrate 2'-(4-methylumbelliferyl)-α-D-N-acetylneuraminic acid (4MU-NANA) was used to assay for neuraminidase activity (modified from Potier et al., Anal. Biochem., 1979, 94, 287). The standard assay for lysate neuraminidase activity contained 0.1M sodium acetate (pH 3-6) or potassium phosphate (pH 6-8) buffer (10 μl of 1 M stock), 1 mM 4MU-NANA (25 μl from a 4 mM aliquot), and the lysate of 0.25 million cells ([…]) in a total volume of 100 μl. Supernatant samples were assayed identically, with supernatant replacing the added cell lysate. The 100 μl samples in plastic 1.5 ml tubes were placed in a 37° C. water bath with a shaker for 30 minutes (sometimes 60 minutes), and the reaction was stopped with 0.9 ml of 0.2M glycine (pH 10.4). […] An HP 1090 Series II HPLC coupled to an HP 1046A flow through fluorescence detector (Hewlett-Packard) was used for automated sample injection and analysis (no column). […] The fluorescence was integrated vs. time and compared to standard 4-methylumbelliferyl dilutions. […]
Aliquots of previously frozen and disrupted cells were thawed to 37° C. and assayed for neuraminidase activity as in the standard assay except the 4MU-NANA concentration varied at 0.1, 0.2, 0.4, 1 and 2 mM (pH 4.5, 5.5, 6.5 and 7.5). […] Kinetic parameters were determined by fitting an integrated form of the Michaelis-Menton equation: […]

| SMILES | inhibition of the neuraminidase present in CHO cell supernatant |
| --- | --- |
| CC(=O)N[C@H]1[C@H]([C@H](O)[C@H](O)CO)OC(C(=O)O)=C[C@@H]1O [2,3-D, 2,3-dehydro-2-deoxy-N-acetylneuraminic acid] | shown to inhibit |
| CC(=O)N[C@H]1[C@H]([C@H](O)[C@H](O)CO)OC(O)(C(=O)O)C[C@@H]1O (some centres unmarked) [NANA, N-acetylneuraminicacid] | shown to inhibit |
